# Test results: patent publication US4764461A, “Tellurium and selenium compounds for the induction of in vivo and in vitro production of cytokines” (priority 1987, dated 1988)
# Values joined by “and” are separate entries in the source; they are usually repeats but may differ in a detail not shown here. Equal entries are not always repeated. “Also recorded” adds a separate entry of the source.
# Tests used:
# [1] = test system: IL-2; spleen cells; test: In vitro IL-2 secretion of mouse spleen cells, CTLD assay (Example 17); type: cell-based, Balb/c mice; details: IL-2 activity, 24 h; for Spleen Cells (cpm): control 2,550
# Experimental: The compounds listed below were tested in vitro at various concentrations that ranged from 10 μg/ml cells to 1×10^-6 μg/ml of cell mixtures. Cells were obtained from spleens of male Balb/c mice 6-8 weeks of age. Spleens were pushed through a stainless steel 60 mesh strainer to separate cells.
# [2] = test system: human mononuclear cells; test: Proliferation of human mononuclear cells (Example 19); type: cell-based; details: at any concentration that was tested
# Experimental: Human mononuclear cells were obtained by layering heparinized blood over a Ficoll/Hypaque gradient. The mononuclear cells were resuspended in enriched RPMI, rinsed three times and brought to a concentrations of 5×10^5 cells/ml encriched RPMI. […] Aliquots of 0.2 ml of each sample were placed in wells of microplates (triplicates). Microplates were incubated for 72 hours at 37° C. after which they were labelled with H^3 methyl-thymidine 1 uCi/well for an additional 24 hours. Cells were then harvested with a cell harvester.
# [3] = test system: IL-2 receptors of human mononuclear cells; test: Induction of IL-2 receptors of human mononuclear cells, proliferation by 3HT uptake (Example 18); type: cell-based
# Experimental: Human MNC were brought to a concentration of 10^6 cells/ml. RPMI+10% FCS. Aliquots of 0.2 ml. were placed in duplicate wells of microdishes and plates were incubated at 37 C for 24 hrs. […] Plates were further incubated for 48 hrs. and labelled with 3H thymidine 24 hrs. before harvesting.
# The proliferation was measured by ^3 HT uptake as described by Gillis et al, J. Immunol. […] The results are expressed in counts per minute.
# [4] = test system: IL-2 receptors; human mononuclear cells; test: Detection of IL-2 receptor sites with fluoresceinated antibody (Example 21); type: cell-based; details: 1 μg/ml, 24 h; control 2%
# Experimental: This example provides an assay to detect the presence of receptor sites for IL-2. […] The cells were washed twice with PBS and then incubated with a specific fluoresceinated antibody against IL-2 receptors as described in Uchiyama et al, J. Immunol.
# [5] = test system: IL-2; test: Oral administration: induction of lymphokines, IL-2 content of spleen cell supernatants (Example 13); type: in vivo, Balb-C mice; details: for IL-2, percent increase as compared to control: 4 days
# Experimental: The water solution was prepared by dissolving the compounds in PBS at a concentration of 50 μg/ml PBS and diluting the resulting solution to the desired concentration. The compounds were administered over a 4 day period. The exact amount of liquid intake was recorded daily. […] The cells were incubated at a concentration of 10^7 cells/ml in enriched RPMI containing 2 μg/ml of con-A for 24 hours at 37° C. The supernatants were collected and tested for IL-2 content.
# After 24 hours the mice were sacrificed and the spleens were processed as described above.
# [6] = test system: West Nile virus (WNV); test: WNV yield in mouse macrophage cultures (Example 23); type: cell-based, WNV in ICR mouse macrophages; details: for Virus Yield (PFU/ml): virus alone 2 × 10^4 /ml
# Experimental: Varying amounts of the compound of Example 1 (5 μg, 1 μg, 0.1 μg) were incubated with a monolayer of mouse macrophages for 24 h. […] All cultures were then infected with 10^4 PFU/plate. After 72 h incubation the supernatants were collected and the virus was titrated against Vera cells.
# [7] = test system: mice; test: Preliminary toxicity studies in mice; type: in vivo; details: 6 week old mice
# Experimental: The compounds may be used as anti-bacterial or anti-viral agents in plants or in animals. Virus infections such as West Nile virus infections in mice are susceptible to the compound of the Example 1 at a dose of 10 μg/day/mouse. Plant bacterial infections such as crown gall caused by Agrobacterium tumefaciens may be treated or prevented by the application of a 0.1% solution of compounds of the invention.
# [8] = test system: IL-2; human mononuclear cells; test: IL-2 production by human mononuclear cells of normal donors and systemic lupus patients, with or without PHA (Example 20); type: cell-based
# Experimental: Using the procedure of Example 4, human mononuclear cells were tested for their ability to produce IL-2 after induction with PHA or in unstimulated cells from normal donors and from patients suffering from systemic lupus erthyrematous. The IL-2 content was tested according to the procedure of Example 3 using the CTLD IL-2 dependent cell line.
# *Dilution of 1 part of 0.2 ml of PBS containing 5 μg of compound of Ex
# **CPM × 10^-3 of ^3 H Thymidine of 5 × 10^4 CTLD
# cells in presence of 1:2 dilution of the supernatants as in Ex. 3. PG,4
# [9] = test system: IL-2; mouse spleen cells; test: In vitro induction of IL-2 from mouse spleen cells (Example 7); type: cell-based, Balb-c mice; details: baseline 4,000-5,000 CPM
# Experimental: (§1) This example describes the in vitro making of IL-2 and CSF from mouse spleen cells using the compound of Example 1 as the extrinsic stimulating agent.
# (§2) Spleens were removed from 15, male Balb-c mice 6 to 8 weeks of age. The spleen cells were pushed through stainless steel 60 mesh (U.S. standard) nets resting in […] Petri dishes containing PBS in order to separate the cells. The cells were then collected into centrifuge tubes and spun at 1000 rpm for 10 minutes. The supernatant was discarded and cells were treated with 5 ml of hypotonic buffer (0.15MNH4 Cl; 0.01M KHCO3 dissolved in double distilled water, pH 7.2) for exactly two minutes. Thereafter, PBS was added to the cells and the test tubes were centrifuged for 10 minutes at 1000 rpm. The cells were rinsed twice and counted in a heamocytometer using trypan blue to test for viability. The cells were brought to a concentration of 10^7 viable cells/ml. The cells were contacted with varying amounts of the compound of Example 1 in 1 ml of 40% DMSO 60% PBS.
# [10] = test system: West Nile virus (WNV); test: West Nile virus infection in mice (Example 22); type: in vivo, ICR mice
# Experimental: The effect of the compound of Example 1 on an infection with West Nile virus (WNV) was determined. WNV is a toga virus of the flavivirus group, a positive single stranded RNA virus, which when injected IP to mice usually kills them within 5-8 days as a result of extensive damage to the central nervous system. For this study ICR mice (3 wks of age) were injected IP with the virus at the concentration of 10^3 or 10^4 LD 50 units/mouse. Injections of 10 μg/0.2 ml PBS/mouse of the compound of Ex. 1 were given on day -1 (one day prior to injection of virus) and 6 days after injection of virus.
# In a second experiment, mice were injected with 10^3 IPLD50 virus and received injections of the compound of Example 1 (1 μg/0.2 ml PBS/mouse) on days -1, 1, 2 and 4.
# [11] = test system: fibrosarcoma cells; test: Survival of mice with methylcholanthrene-induced fibrosarcoma cells (Example 6); type: in vivo, Balb-c mice; details: until just after the increased dosage regimen (day 39)
# Experimental: Balb-c mice, age 7 weeks were injected with methylcholanthrene to induce the formation of fibrosarcoma cells according to the procedure of Example 5. The test animals were divided into two groups.
# (a) control (0.2 IP of 40% DMSO and 60% PBS)
# [12] = test system: IL-2; human mononuclear cells; test: IL-2 activity of human mononuclear cell supernatants on CTLD cells (Example 8); type: cell-based; details: control CTLD cells 3,500
# Experimental: Human mononuclear cells were obtained as described above and cultured for 72 hours at a concentration of 10^6 cells/ml enriched RPMI, in the presence of varying concentrations of the compound of Example 1. Culture supernatants were collected, centrifuged and tested for IL-2 activity by using 50% of the volume of the supernatant assaying their ability to support the proliferation of the IL-2 dependent cell line CTLD.
# [13] = test system: CSF; mouse spleen cells; test: In vitro induction of colony stimulating factor (CSF) from mouse spleen cells (Example 7); type: cell-based, Balb-c mice; details: baseline 70-80 colonies/dish
# Experimental: as §1, §2
compound,measurement,setting,value
CC(=O)O[Te](OC(C)=O)(c1ccccc1)c1ccccc1 [Ph2 Te(OCOCH3)2],Spleen Cells (cpm),[1],"3,500 cpm"
"O=[Te]=O [TeO2, Tellurium dioxide]",Spleen Cells (cpm),[1],"17,055 cpm"
same,"Spleen Cells, percent increase","[1]; control 2,550 cpm",508%
same,effect on proliferation,[2],No significant effect
same,"proliferation (3HT uptake), counts per minute","[3]; Test A, 1 μg/ml, control 2338",1563 counts per minute
same,"proliferation (3HT uptake), counts per minute","[3]; Test A, 1 × 10^-2 μg/ml, control 2338",3108 counts per minute
same,"proliferation (3HT uptake), counts per minute","[3]; Test A, 1 × 10^-3 μg/ml, control 2338",2867 counts per minute
same,"proliferation (3HT uptake), counts per minute","[3]; Test A, 1 × 10^-4 μg/ml, control 2338",5540 counts per minute
same,"proliferation (3HT uptake), counts per minute","[3]; Test A, 1 × 10^-5 μg/ml, control 2338",3442 counts per minute
same,"proliferation (3HT uptake), counts per minute","[3]; Test A, 5 × 10^-1 μg/ml, control 2338",4667 counts per minute
same,"proliferation (3HT uptake), counts per minute","[3]; Test A, 5 × 10^-2 μg/ml, control 2338",2515 counts per minute
same,"proliferation (3HT uptake), counts per minute","[3]; Test A, 7 × 10^-1 μg/ml, control 2338",2475 counts per minute
same,"proliferation (3HT uptake), counts per minute","[3]; Test B, 1 μg/ml, control 5573",3275 counts per minute
same,"proliferation (3HT uptake), counts per minute","[3]; Test B, 1 × 10^-2 μg/ml, control 5573",3077 counts per minute
same,"proliferation (3HT uptake), counts per minute","[3]; Test B, 1 × 10^-3 μg/ml, control 5573",3800 counts per minute
same,"proliferation (3HT uptake), counts per minute","[3]; Test B, 1 × 10^-4 μg/ml, control 5573",2925 counts per minute
same,"proliferation (3HT uptake), counts per minute","[3]; Test B, 1 × 10^-5 μg/ml, control 5573",3645 counts per minute
same,"proliferation (3HT uptake), counts per minute","[3]; Test B, 5 × 10^-1 μg/ml, control 5573",5405 counts per minute
same,"proliferation (3HT uptake), counts per minute","[3]; Test B, 5 × 10^-2 μg/ml, control 5573",4280 counts per minute
same,"proliferation (3HT uptake), counts per minute","[3]; Test B, 7 × 10^-1 μg/ml, control 5573",4302 counts per minute
same,cells positive for IL-2 receptors,[4],5%
O=C(O[Te](OC(=O)c1ccccc1)(c1ccccc1)c1ccccc1)c1ccccc1 [Ph2 Te(OCOPh)2],Spleen Cells (cpm),[1],"4,300 cpm"
Cl[Te]1(Cl)OCCO1 [Example 2],Spleen Cells (cpm),[1],"18,000 cpm"
same,"IL-2, percent increase as compared to control",[5]; 1 μg/ml drinking water,30%
same,"IL-2, percent increase as compared to control",[5]; 25 μg/ml drinking water,35%
Ph2 TeCl,Spleen Cells (cpm),[1],"2,100 cpm"
Cl[Te](Cl)(c1ccccc1)c1ccccc1 [Ph2 TeCl2],Spleen Cells (cpm),[1],"2,300 cpm"
Cl[TeH]1(Cl)(Cl)OCCO1 [Example 1],reduction in virus yield,[6]; 0.1 μg,ten
same,Virus Yield (PFU/ml),[6]; 0.1 μg/plate,2 × 10^3 PFU/ml
same,Virus Yield (PFU/ml),[6]; 1 μg/plate,5 × 10^2 PFU/ml
same,LD50,[7],300 ug./25 g of body weight
same,"IL-2, percent increase as compared to control",[5]; 1 μg/ml drinking water,50%
same,inducing lymphokine production,[5]; given in dry form or when hydrolyzed in an aqueous diluent,active for inducing lymphokine production
same,"IL-2 production, CPM × 10^-3 of 3H thymidine","[8]; SLE, PHA +, 5 μg 0.2 ml PBS",6.3 CPM × 10^-3 and 8.2 CPM × 10^-3 and 4.1 CPM × 10^-3
same,"IL-2 production, CPM × 10^-3 of 3H thymidine","[8]; SLE, PHA +, 1:100 PBS",24.0 CPM × 10^-3
same,"IL-2 production, CPM × 10^-3 of 3H thymidine","[8]; SLE, PHA -, 5 μg 0.2 ml PBS",2.0 CPM × 10^-3 and 2.4 CPM × 10^-3
same,"IL-2 production, CPM × 10^-3 of 3H thymidine","[8]; normal, PHA -, 5 μg 0.2 ml PBS",2.3 CPM × 10^-3 and 2.1 CPM × 10^-3
same,IL-2 (cpm),[9]; 5 pg,"12,000 cpm"
same,IL-2 (cpm),[9]; 50 pg,"38,000 cpm"
same,IL-2 (cpm),[9]; 500 pg,"30,000 cpm"
same,IL-2 (cpm),[9]; 5 ng,"15,000 cpm"
same,IL-2 (cpm),[9]; 50 ng,"6,000 cpm"
same,IL-2 (cpm),[9]; 500 ng,"5,000 cpm"
same,IL-2 (cpm),[9]; 5 μg,"5,000 cpm"
same,IL-2 (cpm),[9]; 50 μg,"5,000 cpm"
same,West Nile virus infections in mice,[10]; 10 μg/day/mouse,susceptible
same,animals remained alive after 8 days,"[10]; 10^3 or 10^4 LD50 virus, 10 μg/mouse",three out of five
same,# Alive/Total Animals,"[10]; Table A, no virus (0), compound alone",6/6
same,further survival of the remaining three mice,"[10]; second experiment, after day 8",Two out of the remaining three survived an additional 8 days; also recorded: the third remained alive without any manifestations of clinical symptoms
same,# Alive/Total,"[10]; second experiment, day 8, 10^3 IPLD50 virus, 1 μg/mouse on days -1, 1, 2 and 4, virus alone 0/8",3 out of 5 and 3/5
same,# Alive/Total,"[10]; second experiment, day 8, compound alone, no virus",5/5
same,mortality results for group (b),[11],0%
same,"IL-2 activity, Counts per minute",[12]; 1 ng,"11,000 Counts per minute"
same,"IL-2 activity, Counts per minute",[12]; 10 ng,"1,500 Counts per minute"
same,"IL-2 activity, Counts per minute",[12]; 1 μg,250 Counts per minute
same,"IL-2 activity, Counts per minute",[12]; 100 μg,280 Counts per minute
same,CSF (colonies/dish),[13]; 5 pg,140 colonies/dish
same,CSF (colonies/dish),[13]; 50 pg,260 colonies/dish
same,CSF (colonies/dish),[13]; 5 ng,120 colonies/dish
same,CSF (colonies/dish),[13]; 50 ng,75 colonies/dish
same,CSF (colonies/dish),[13]; 500 ng,25 colonies/dish
same,CSF (colonies/dish),[13]; 5 μg,5 colonies/dish
same,CSF (colonies/dish),[13]; 50 μg,2 colonies/dish
Cl[Te](Cl)(Cl)c1ccccc1 [PhTeCl3],Spleen Cells (cpm),[1],"18,000 cpm"
